Here are results for 15 compounds from ChEMBL document CHEMBL1142040, “Melanocortin subtype-4 receptor agonists containing a piperazine core with substituted aryl sulfonamides” (Bioorg Med Chem Lett, 2005).

Where “and” joins values, the source holds several entries; their conditions need not be identical. Equal entries are not always repeated.

For data set [1], the target named is T1, Melanocortin receptor 4 (Homo sapiens, UniProt P32245). Put plainly: In vitro inhibitory concentration required against melanocortin 4 receptor using [125I]NDP-MSH as radioligand.
For data set [2], the target named is T1, Melanocortin receptor 4. Kind of data set: Effective concentration determined against melanocortin-4 receptor. The format is functional.
Data set [3] addresses Melanocortin receptor (M4 and M5) (Homo sapiens) (UniProt P32245+P33032). Kind of data set: Selectivity for melanocortin 4 receptor compared to melanocortin 5 receptor in vitro. It counts as functional.
The target of data set [4] is Melanocortin receptor 5 (Homo sapiens, UniProt P33032). Kind of data set: Effective concentration determined against melanocortin-5 receptor. It counts as functional.
The target in data set [5] is Melanocortin receptor 3 (Homo sapiens, UniProt P41968). Kind of data set: Effective concentration determined against melanocortin-3 receptor. The format is functional.
Data set [6] is described as follows: Clearance value of compound was determined in mice. The format is ADME, organism-based. The note with it: mouse, in vivo.
A short description of data set [7]: Bioavailability concentration of compound was determined in mice. It counts as ADME, organism-based. The note with it: mouse, in vivo.
Data set [8] in a line: Volume of distribution of compound was determined in mice. It counts as ADME, organism-based. The note with it: mouse, in vivo.
Data set [9] is described as follows: Maximum plasma level concentration was determined in mice. The format is ADME, organism-based. The conditions noted are these: mouse.
Data set [10] in a line: Tmax of compound was determined in mice. It counts as ADME. The conditions noted are these: mouse, in vivo.
Data set [11] in a line: Brain concentration of compound was determined in mice. It counts as ADME. The conditions noted are these: mouse, in vivo.
Data set [12] can be described thus: Half life of compound was determined in mice. It counts as ADME. The note with it: mouse, in vivo.

Chain of Melanocortin receptor 3 (P41968 whole entry): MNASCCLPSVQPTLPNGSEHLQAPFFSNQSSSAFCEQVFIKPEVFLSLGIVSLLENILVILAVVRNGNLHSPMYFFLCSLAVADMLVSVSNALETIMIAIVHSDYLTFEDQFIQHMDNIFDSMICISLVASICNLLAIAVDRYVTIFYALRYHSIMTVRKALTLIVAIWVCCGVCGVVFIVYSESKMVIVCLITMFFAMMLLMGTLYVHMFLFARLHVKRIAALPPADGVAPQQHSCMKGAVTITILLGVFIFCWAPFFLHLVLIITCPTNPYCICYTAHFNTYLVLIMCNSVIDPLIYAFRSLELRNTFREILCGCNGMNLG
Chain of Melanocortin receptor 5 (P33032 whole entry): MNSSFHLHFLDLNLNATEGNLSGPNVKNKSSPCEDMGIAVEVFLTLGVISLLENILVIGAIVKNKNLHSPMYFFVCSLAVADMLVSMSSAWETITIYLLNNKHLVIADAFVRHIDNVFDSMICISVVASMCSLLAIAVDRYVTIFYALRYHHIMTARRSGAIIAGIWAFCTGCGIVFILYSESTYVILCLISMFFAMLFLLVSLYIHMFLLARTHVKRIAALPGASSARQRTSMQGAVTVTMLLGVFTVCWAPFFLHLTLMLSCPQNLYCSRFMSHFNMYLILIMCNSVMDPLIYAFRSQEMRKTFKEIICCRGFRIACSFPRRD
T1 sequence (P32245 whole entry): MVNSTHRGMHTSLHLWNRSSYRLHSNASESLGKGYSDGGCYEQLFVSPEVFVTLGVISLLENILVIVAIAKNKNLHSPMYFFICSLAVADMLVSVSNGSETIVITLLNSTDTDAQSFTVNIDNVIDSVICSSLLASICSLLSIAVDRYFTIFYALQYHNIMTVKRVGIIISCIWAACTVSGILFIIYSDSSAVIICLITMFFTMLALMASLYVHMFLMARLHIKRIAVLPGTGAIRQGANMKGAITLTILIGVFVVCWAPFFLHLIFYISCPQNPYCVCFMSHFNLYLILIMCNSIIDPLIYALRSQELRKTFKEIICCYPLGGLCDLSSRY
Chain of Melanocortin receptor (M4 and M5) (Homo sapiens) (P32245 whole entry, looked up): as the sequence (P32245 whole entry) above
Chain of Melanocortin receptor (M4 and M5) (Homo sapiens) (P33032 whole entry, looked up): as the sequence (P33032 whole entry) above

As usually defined, the IC50 is the midpoint of a concentration-inhibition curve. A higher IC50 goes with weaker potency in that assay. Broadly, the EC50 is the concentration giving half of the maximal effect. Read a low EC50 as higher potency in that assay. In data set [1], `CS(=O)(=O)N(CC1CC1)c1ccccc1N1CCN(C(=O)[C@@H](Cc2ccc(Cl)cc2)NC(=O)c2cnc3ccccc3c2)CC1` gave an IC50 of 94 nM. For the same compound, the response in data set [2] was half-maximal at 60 nM (EC50).

In data set [1], `CS(=O)(=O)N(CC1CC1)c1ccccc1N1CCN(C(=O)[C@@H](Cc2ccc(Cl)cc2)NC(=O)c2ccc3ncccc3c2)CC1` yielded an IC50 of 29 nM. In [2], this compound yielded an EC50 of 27 nM.

`CS(=O)(=O)N(CCN)c1ccccc1N1CCN(C(=O)[C@@H](Cc2ccc(Cl)cc2)NC(=O)[C@@H]2Cc3ccccc3CN2)CC1` yielded a Selectivity in data set [3] of 79. In addition, the figures for the EC50 in [4], in data set [2] and in data set [5] were 79 nM, below 0.1 nM and above 10000 nM, respectively. In data set [1], this compound registered an IC50 of 35 nM.

In turn, `CS(=O)(=O)N(CC1CC1)c1ccccc1N1CCN(C(=O)[C@@H](Cc2ccc(Cl)cc2)NC(=O)[C@@H]2Cc3ccccc3CN2)CC1` returned a Selectivity in [3] of 170. Moreover, the EC50 was 170 nM in data set [4]; 0.58 nM and 0.6 nM in [2]; 7000 nM in data set [5]. This compound displayed an IC50 in data set [1] of 61 nM.

In [1], `CS(=O)(=O)N(CC1CC1)c1ccccc1N1CCN(C(=O)[C@@H](Cc2ccc(Cl)cc2)NC(=O)C2CN(C3CCCCC3)C2)CC1` came in with an IC50 of 67 nM. Further, the response in data set [2] was half-maximal at 1.8 nM (EC50).

In data set [1], `O=C(N[C@H](Cc1ccc(Cl)cc1)C(=O)N1CCN(c2ccccc2NS(=O)(=O)c2ccccc2)CC1)[C@@H]1Cc2ccccc2CN1` gave an IC50 of 730 nM. For the same compound, it took 120 nM to reach a half-maximal effect in [2] (EC50).

Take `CS(=O)(=O)N(CC1CC1)c1ccccc1N1CCN(C(=O)[C@@H](Cc2ccc(Cl)cc2)NC(=O)c2ccc3ccccc3c2)CC1`: in data set [1], the IC50 was 280 nM. In data set [2], this compound displayed an EC50 of 63 nM.

Turning to `O=C(N[C@H](Cc1ccc(Cl)cc1)C(=O)N1CCN(c2ccccc2NS(=O)(=O)Cc2ccccc2)CC1)[C@@H]1Cc2ccccc2CN1`, the IC50 in data set [1] stood at 720 nM. Moreover, the concentration for a half-maximal effect (EC50) in data set [2] is 65 nM.

A word on the bioavailability: it is the share of a dose that reaches the circulation, judged against a reference dose that is usually intravenous. Lower therefore signals poor availability. The term Cmax denotes the maximum level reached in the sampled fluid or tissue. What is called Tmax is the time from dosing to the highest level. Consider `CCCN(c1ccccc1N1CCN(C(=O)[C@@H](Cc2ccc(Cl)cc2)NC(=O)[C@@H]2Cc3ccccc3CN2)CC1)S(C)(=O)=O`, for which the Cl/F in [6] is 30 mL/min/kg. The same compound had a bioavailability in data set [7] of 20%. Also, the values for the EC50 in data set [4], in [2] and in data set [5] were 210 nM, 0.44 nM and above 10000 nM, respectively. The compound further gave a V2/F in data set [8] of 19 L/kg. This compound registered a Cmax in data set [9] of 1400 ng/mL. Moreover, in data set [10], the Tmax came to 15 min. Further, the Cbrain in [11] was determined as 130 ng/g. The same compound came in with a T1/2 in data set [12] of 26.4 min.

`CCN1CCC(C(=O)N[C@H](Cc2ccc(Cl)cc2)C(=O)N2CCN(c3ccccc3N(CC3CC3)S(C)(=O)=O)CC2)CC1` had an IC50 in data set [1] of 110 nM. This compound gave an EC50 in [2] of 8.6 nM.

`CN(c1ccccc1N1CCN(C(=O)[C@@H](Cc2ccc(Cl)cc2)NC(=O)[C@@H]2Cc3ccccc3CN2)CC1)S(C)(=O)=O` had an IC50 in data set [1] of 210 nM. Also, the EC50 in data set [2] stood at 4 nM.

In turn, `CS(=O)(=O)N(CC1CC1)c1ccccc1N1CCN(C(=O)[C@@H](Cc2ccc(Cl)cc2)NC(=O)c2cc3ccccc3cn2)CC1` gave an IC50 in [1] of 410 nM. In [2], this compound gave an EC50 of 18 nM.

Consider `CS(=O)(=O)Nc1ccccc1N1CCN(C(=O)[C@@H](Cc2ccc(Cl)cc2)NC(=O)[C@@H]2Cc3ccccc3CN2)CC1`, for which the Selectivity in data set [3] was determined as 21. The EC50 was 230 nM in [4], 11 nM in [2] and above 10000 nM in data set [5]. Further, the IC50 in [1] amounted to 340 nM.

For the compound `CC(C)CCN1CC(C(=O)N[C@H](Cc2ccc(Cl)cc2)C(=O)N2CCN(c3ccccc3N(CC3CC3)S(C)(=O)=O)CC2)C1`, the IC50 in [1] was found to be 83 nM. This compound showed an EC50 in [2] of 49 nM.

With `CN1CCC(C(=O)N[C@H](Cc2ccc(Cl)cc2)C(=O)N2CCN(c3ccccc3N(CC3CC3)S(C)(=O)=O)CC2)CC1`, the IC50 in data set [1] worked out at 120 nM. In addition, in data set [2], the midpoint of the response, the EC50, lay at 12 nM.
